{"source": "patent US20130164335A1", "about": "“METHODS AND COMPOSITIONS FOR CELLULAR DRUG RELEASE” (NATIONAL HEALTH RESEARCH INSTITUTES, priority 2011, published 2013)", "origin": "cited, not measured here", "settings": "after the first dosage; from a report", "data": [{"smiles": "Cc1cc2c(s1)Nc1ccccc1N=C2N1CCN(C)CC1", "note": "[OLZ, Olanzapine]", "values": [{"measurement": "time to reach steady-state", "result": "one week"}]}]}
